Key:
[1] = tested on: EGF-induced Ras activation in HeLa cells; test: Ras activation assay (GST-RBD pull-down), HeLa; type: cell-based, human; settings: Fumos 20 μM
Method: Active Ras was detected by use of the RBD of raf-1 fused to glutathione S-transferase (GST) as described previously. Cells were lysed in MLB buffer (25 mM Hepes, 150 mM NaCl, 1% Nonidet P-40, 0.25% sodium deoxycholate, 10% glycerol, 25 mM NaF, 1 mM Na3VO4, 10 mM MgCl2, 1 mM EDTA, pH 7.5) supplemented with complete EDTA-free protease inhibitor mixture. Total 500 μg cell lysate was incubated with 10–20 μg of GST-RBD bound beads(Merck) overnight at 4 °C. The beads were pelleted by centrifugation and washed three times with MLB buffer. The beads were boiled in SDS loading buffer and subjected to electrophoresis, followed by immunoblotting with an anti-Ras antibody (Santa Cruz Biotechnology).

[2] = molecular target: PTPH1 (Homo sapiens, UniProt P26045); test: in vitro PTP assay (pNPP), PTPH1; type: biochemical
PTPH1, sequence (P26045 646-901 limits assumed): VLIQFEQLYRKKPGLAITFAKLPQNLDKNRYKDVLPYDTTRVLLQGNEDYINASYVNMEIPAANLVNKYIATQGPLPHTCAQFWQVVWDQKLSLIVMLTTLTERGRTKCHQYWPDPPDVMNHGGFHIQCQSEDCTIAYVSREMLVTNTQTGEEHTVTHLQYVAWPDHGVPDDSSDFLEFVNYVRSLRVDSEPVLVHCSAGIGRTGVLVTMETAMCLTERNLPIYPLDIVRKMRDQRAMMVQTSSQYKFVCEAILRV
Method: (§1) Plasmids for expression of His-tag fusion proteins of human PTP were constructed in PET-28a by PCR subcloning techniques. The constructions contain only the PTP domain except Full-length Shp2. Full-length Shp2 containing Tyr279-to-Ala mutant was generated by PCR-based mutagenesis. All constructs were verified by DNA sequencing. PTP-His fusion proteins were expressed in Escherichia coli BL21 and lysed in the buffer (50 mM NaH2PO4, 300 mM NaCl, 250 mM imidazole, 1 mM dithiothreitol plus 5% glycerol), purified with Ni-NTA Magnetic Agarose Beads (Qiagen). The His-tag recombinant purification protocol was carried out according to the purification under native conditions of the QIAexpress System.
(§2) The assay was set in wells of 96-well plate with a final volume of 100 μl of reaction mixture containing 10 mM of NaAc-HAc, 1 mM of ethylene diamine tetraacetic acid, 1 mM of DL-dithiothreitol and 2% of dimethyl sulfoxide, pH 5.5. Activity of the enzyme was assayed by incubating recombinant PTP protein or mutant PTP with various concentrations of Fumos in the mixture at 37 °C for 30 min. Absorbance at 405 nm was detected immediately after addition of varied concentrations of substrate, p-nitrophenyl phosphate (pNPP) to each corresponding well.

[3] = molecular target: PTPRA (Homo sapiens, UniProt P18433); test: biochemical
PTPRA, sequence (P18433 241-501 limits assumed): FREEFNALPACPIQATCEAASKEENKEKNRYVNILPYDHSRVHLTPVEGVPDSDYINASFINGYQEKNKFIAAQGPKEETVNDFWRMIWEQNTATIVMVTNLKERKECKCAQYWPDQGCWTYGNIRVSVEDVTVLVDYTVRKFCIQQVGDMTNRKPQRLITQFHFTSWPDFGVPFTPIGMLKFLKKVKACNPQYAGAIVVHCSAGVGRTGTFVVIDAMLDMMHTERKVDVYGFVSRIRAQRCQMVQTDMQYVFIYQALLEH
Method: as §1, §2

[4] = molecular target: STEP (Homo sapiens, UniProt P54829); test: biochemical
STEP, sequence (P54829 300-555 limits assumed): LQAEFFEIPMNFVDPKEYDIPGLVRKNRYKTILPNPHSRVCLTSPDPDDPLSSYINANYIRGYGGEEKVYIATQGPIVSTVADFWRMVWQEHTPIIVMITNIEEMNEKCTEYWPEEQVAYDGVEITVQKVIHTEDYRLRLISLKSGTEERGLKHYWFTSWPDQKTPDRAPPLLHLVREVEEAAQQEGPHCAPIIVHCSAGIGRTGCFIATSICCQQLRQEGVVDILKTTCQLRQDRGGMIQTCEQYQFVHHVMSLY
Method: as §1, §2

[5] = tested on: ERK1/2 activation in HEK293T cells expressing H-RasV12; test: RasV12-induced ERK1/2 activation in transfected HEK293T; type: cell-based, human; settings: Fumos 20 μM or U0126 10 μM, 24 h
Method: DMSO treatment as control. […] (c) Fumos inhibits EGF-induced Ras activation.
HEK293T, MDA-MB-231and HeLa cell lines were obtained from CRC/PUMC. Cell lines were maintained in Dulbecco’s modified Eagle’s medium supplemented with 10% fetal bovine serum. Transfections were performed in 6-well plates according to manufacturer (Invitrogen Lipofectamine LTX).Briefly, for transient transfection of HEK293T cells, subconfluent cells in 6-well plates were incubated with 2 ml of Dulbecco’s modified Eagle’s medium containing 2.5 μg of total DNA and 7.5 μl of each Lipofectamine and Plus reagent (Invitrogen) and then serum-starved in DMEM/0.1% bovine serum albumin for 18 h. After Fumos treatment for 24 h, cells were stimulated for 5 min with 20 ng/ml EGF.
(§3) After centrifugation, the supernatant was collected.

[6] = molecular target: T1, Shp2-WT (Homo sapiens, UniProt Q06124); test: Surface plasmon resonance analysis, Shp2-WT; type: binding; settings: SPR, Fumos immobilized, Shp2-WT injected
T1 sequence (Q06124 1-593): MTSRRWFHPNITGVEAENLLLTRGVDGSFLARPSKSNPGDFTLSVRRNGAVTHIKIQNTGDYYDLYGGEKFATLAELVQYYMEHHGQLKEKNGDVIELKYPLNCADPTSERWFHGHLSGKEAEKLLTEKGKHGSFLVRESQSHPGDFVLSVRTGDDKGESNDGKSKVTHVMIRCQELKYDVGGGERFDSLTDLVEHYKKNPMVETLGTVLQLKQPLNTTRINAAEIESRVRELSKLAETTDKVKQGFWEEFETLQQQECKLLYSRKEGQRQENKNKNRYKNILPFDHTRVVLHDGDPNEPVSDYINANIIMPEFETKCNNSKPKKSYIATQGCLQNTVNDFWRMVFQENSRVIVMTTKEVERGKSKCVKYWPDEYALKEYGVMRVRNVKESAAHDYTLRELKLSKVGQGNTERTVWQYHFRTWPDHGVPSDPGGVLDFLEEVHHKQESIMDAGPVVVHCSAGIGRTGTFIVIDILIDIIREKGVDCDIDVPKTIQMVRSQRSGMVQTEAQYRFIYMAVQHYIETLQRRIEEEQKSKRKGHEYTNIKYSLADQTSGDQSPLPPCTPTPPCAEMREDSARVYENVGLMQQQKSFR
Method: One small molecule (10 mM) was spotted on the 3D sensor chip. Positive and negative controls on the chip were monitored for binding kinetics to verify immobilization. All experiments were performed using Plexera’s Plex Array SPRi instrumentation, visualized using Instrument Control software (ICS) and analyzed using Plexera Data Explorer software.
Proteins were injected in the following order: Shp2 full-length protein (12 nM, 36 nM, 108 nM, 324 nM), Shp2 Y279A protein (35 nM, 70 nM,140 nM, 280 nM, 560 nM). Each protein was injected at a flow rate of 1 μl/sec. The association duration was 200 sec and dissociation duration was 300 sec. Regeneration between injections was performed with 600 μl of 10 mM glycine-HCl, pH = 2.0. The data were analyzed by Plexera Data Explorer software.

[7] = tested on: Src and Paxillin phosphorylation in HeLa cells; test: Src, PLCγ1 and Paxillin phosphorylation, Western blot, HeLa; type: cell-based, human; settings: 10-40 μM 24 h, EGF
Excerpt: Figure 6 Fumos affects the phosphorylation of Src and Paxillin. […] DMSO treatment as control. Western blotting analysis for the expression of p-Src(Tyr416) p-Src (Tyr530), Src, p-PLCγ1, PLCγ1, p-Paxillin(Tyr118), p-Paxillin (Tyr31) and Paxillin. (b,c) Densitometric analysis of pSrc530/Src in the Western blots of Hela and MDA-MB-231, respectively. Bars represent mean ± S.E.M. values from three experiments, **p = 0.006 < 0.01/F = 8 vs EGF, one-way ANOVA followed by Tukey’s test.
as §3

## CC[C@@H](C)C[C@@H](C)/C=C(C)/C=C/C=C/C=C(\C)C(=O)c1c(O)c(-c2ccc(O)cc2)cn(O)c1=O [Fumos, Fumosorinone]
[1]
  EGF-induced endogenous Ras activation: inhibited
[2]; PTPH1 PTP domain
  IC50: > 100 µM
[2]; PTPH1 relative to Shp2 PTP domain
  IC50 selective: >16
[3]; PTPRA PTP domain
  IC50: > 100 µM
[3]; PTPRA relative to Shp2 PTP domain
  IC50 selective: >16
[4]; STEP PTP domain
  IC50: > 100 µM
[4]; STEP relative to Shp2 PTP domain
  IC50 selective: >16
[5]
  RasV12-induced ERK1/2 activation: did not inhibit
[6]
  Ka (association rate): 7.06 × 10^5 M^−1 S^−1
  Kd: 0.04 µM
  Kd (dissociation rate): 2.85 × 10^−2 S^−1
[7]
  Src Tyr416 phosphorylation: dose-dependent downregulation
  phosphorylated Tyr 530 of Src: moderately increased
  phosphorylation of PLCγ1: decreased
  phosphorylation of Paxillin at Tyr31: peaked at low concentrations of Fumos and reduced at high concentrations
  phosphorylation of Paxillin at Tyr118: decreased with the increasing concentrations
